Reference: PubChem BioAssay AID1963825 (Molecular Pharmacology Branch, DTP, NCI, 2024)

Assay: Anticancer human tumor 997537-175-T-J1-PDC patient-derived colon adenocarcinoma cell line growth inhibition [POLQ]
Conditions: 997537-175-T-J1-PDC complex spheroid viability, combination with POLQ inhibitors; for IC50: curve of first compound; for viability, T/C: stronger effect = lower value
Outline: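 Growth inhibition in 3D: complex spheroids (tumor PDC, HUVEC, MSC) treated with POLQ inhibitor combinations; where Cmax unknown, highest tested concentration 10 microM, except SN-38 at 1 microM.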
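Also: luminescence signal used as a surrogate for viable cells; spheroids exposed to drugs for seven days before readout.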

Structure (SMILES): CC(=O)O[C@H]1C(=O)[C@@]2(C)[C@H]([C@H](OC(=O)c3ccccc3)[C@]3(O)C[C@H](OC(=O)[C@H](O)[C@@H](NC(=O)c4ccccc4)c4ccccc4)C(C)=C1C3(C)C)[C@]1(OC(C)=O)CO[C@@H]1C[C@@H]2O + COC1C(OC(N)=O)C(O)C(Oc2ccc3c(O)c(NC(=O)c4ccc(O)c(CC=C(C)C)c4)c(=O)oc3c2C)OC1(C)C
- IC50 (second compound 0.0316 µM): 18.6 nM
- IC50 (second compound 0.1 µM): < 9.49 nM
- IC50 (second compound 0.316 µM): 82.6 nM
- IC50 (second compound 1 µM): 16.5 nM
- IC50 (second compound 3.16 µM): 14.6 nM
- IC50 (second compound 10 µM): 17 nM
- viability, T/C (second compound 0.0316 µM, first compound 0.00949 µM): 65.5%
- viability, T/C (second compound 0.0316 µM, first compound 0.03 µM): 41.5%
- viability, T/C (second compound 0.0316 µM, first compound 0.0949 µM): 24.5%
- viability, T/C (second compound 0.0316 µM, first compound 0.3 µM): 41.6%
- viability, T/C (second compound 0.0316 µM, first compound 0.949 µM): 23.9%
- viability, T/C (second compound 0.0316 µM, first compound 3 µM): 42%
- viability, T/C (second compound 0.1 µM, first compound 0.00949 µM): 46.6%
- viability, T/C (second compound 0.1 µM, first compound 0.03 µM): 41%
- viability, T/C (second compound 0.1 µM, first compound 0.0949 µM): 23.9%
- viability, T/C (second compound 0.1 µM, first compound 0.3 µM): 44.9%
- viability, T/C (second compound 0.1 µM, first compound 0.949 µM): 21.9%
- viability, T/C (second compound 0.1 µM, first compound 3 µM): 28.1%
- viability, T/C (second compound 0.316 µM, first compound 0.00949 µM): 70.7%
- viability, T/C (second compound 0.316 µM, first compound 0.03 µM): 60.1%
- viability, T/C (second compound 0.316 µM, first compound 0.0949 µM): 34.6%
- viability, T/C (second compound 0.316 µM, first compound 0.3 µM): 50.9%
- viability, T/C (second compound 0.316 µM, first compound 0.949 µM): 34%
- viability, T/C (second compound 0.316 µM, first compound 3 µM): 18.2%
- viability, T/C (second compound 1 µM, first compound 0.00949 µM): 66.9%
- viability, T/C (second compound 1 µM, first compound 0.03 µM): 32.5%
- viability, T/C (second compound 1 µM, first compound 0.0949 µM): 22.9%
- viability, T/C (second compound 1 µM, first compound 0.3 µM): 29.6%
- viability, T/C (second compound 1 µM, first compound 0.949 µM): 29.9%
- viability, T/C (second compound 1 µM, first compound 3 µM): 35.3%
- viability, T/C (second compound 3.16 µM, first compound 0.00949 µM): 61.8%
- viability, T/C (second compound 3.16 µM, first compound 0.03 µM): 24.9%
- viability, T/C (second compound 3.16 µM, first compound 0.0949 µM): 22.7%
- viability, T/C (second compound 3.16 µM, first compound 0.3 µM): 30.7%
- viability, T/C (second compound 3.16 µM, first compound 0.949 µM): 44%
- viability, T/C (second compound 3.16 µM, first compound 3 µM): 28.1%
- viability, T/C (second compound 10 µM, first compound 0.00949 µM): 67.2%
- viability, T/C (second compound 10 µM, first compound 0.03 µM): 27%
- viability, T/C (second compound 10 µM, first compound 0.0949 µM): 35.5%
- viability, T/C (second compound 10 µM, first compound 0.3 µM): 40.1%
- viability, T/C (second compound 10 µM, first compound 0.949 µM): 27.4%
- viability, T/C (second compound 10 µM, first compound 3 µM): 35.6%
